From US20190085024A1, “Alpha-Ketoamide Inhibitors Of Cysteine Proteases” (Phelix Therapeutics, priority 2017, published 2019)

Columns and labels:
[1] = target: Cathepsin B (Homo sapiens, UniProt P07858); test: Cathepsin B enzyme assay; details: Cat B (μM), Ki by Morrison equation; pH 6.0, substrate Z-Phe-Arg-Amc
[2] = target: Cathepsin L (Homo sapiens, UniProt P07711); test: Cathepsin L enzyme assay; assay type: biochemical; details: Ki by Morrison equation; pH 5.5, substrate Z-Phe-Arg-Amc; read-out: Cat L
Excerpt: Two wells contained DMSO only for controls.
Velocity was converted to μM/sec.

[3] = target: Calpain; test: Calpain enzyme assay; assay type: biochemical; details: Ki by Morrison equation; pH 7.5, 5 mM CaCl2

Sequence of Cathepsin L (P07711 114-333, species assumed): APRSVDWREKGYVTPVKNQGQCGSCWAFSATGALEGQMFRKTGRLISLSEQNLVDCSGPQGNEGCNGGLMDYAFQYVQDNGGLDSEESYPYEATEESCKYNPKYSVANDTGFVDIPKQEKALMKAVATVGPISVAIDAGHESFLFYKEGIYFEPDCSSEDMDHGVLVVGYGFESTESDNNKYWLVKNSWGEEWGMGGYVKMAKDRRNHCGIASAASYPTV

Compound | Ki [1] [µM] | Ki [2] [µM] | Ki [3] [µM]
CCC(C)C(NC(=O)C(=O)C(C)NC(=O)Cc1ccccc1)C(=O)NC(C)(C)C(=O)O (stereo not shown) [PHELIX132, 2-methyl-2-(3-methyl-2-(2-oxo-3-(2-phenylacetamido)butanamido)pentanamido)propanoic acid] | 702 | 134 | –
CC[C@H](C)[C@H](NC(=O)C(=O)C(C)NC(=O)Cc1ccccc1)C(=O)N1CCC[C@H]1C(=O)O (stereo partly shown) [PHELIX138, (2-oxo-3-(2-phenylacetamido)butanoyl)isoleucylproline] | 27.8 | 69.8 | –
CCC(C)C(NC(=O)C(=O)C(C)(C)NC(=O)Cc1ccccc1)C(=O)NC(C)(C)C(=O)O (stereo not shown) [PHELIX139, 2-methyl-2-(3-methyl-2-(3-methyl-2-oxo-3-(2-phenylacetamido)butanamido)pentanamido)propanoic acid] | 1130 | 57.4 | –
CC[C@H](C)[C@H](NC(=O)C(=O)C(C)NC(=O)C(Cc1ccccc1)NC(=O)Cc1ccccc1)C(=O)N1CCC[C@H]1C(=O)O (stereo partly shown) [PHELIX155, (2-oxo-3-(3-phenyl-2-(2-phenylacetamido)propanamido)butanoyl)isoleucylproline] | 0.0215 | 0.3 | –
CC(NC(=O)C(Cc1ccccc1)NC(=O)Cc1ccccc1)C(=O)C(=O)NC(Cc1ccc2ccccc2c1)C(=O)NC(C)(C)C(=O)O (stereo not shown) [PHELIX158, 12-benzyl-2,2,9-trimethyl-5-(naphthalen-2-ylmethyl)-4,7,8,11,14-pentaoxo-15-phenyl-3,6,10,13-tetraazapentadecanoic acid] | 0.439 | 0.141 | –
CCC(C)C(NC(=O)C(=O)C(C)NC(=O)C(Cc1ccccc1)NC(=O)Cc1ccc2ccccc2c1)C(=O)NC(C)(C)C(=O)O (stereo not shown) [PHELIX161, 12-benzyl-5-(sec-butyl)-2,2,9-trimethyl-15-(naphthalen-2-yl)-4,7,8,11,14-pentaoxo-3,6,10,13-tetraazapentadecanoic acid] | 0.0549 | 1.99 | –
CC(NC(=O)C(Cc1ccccc1)NC(=O)Cc1ccccc1)C(=O)C(=O)NC(Cc1cccc2ccccc12)C(=O)NC(C)(C)C(=O)O (stereo not shown) [PHELIX162, 12-benzyl-2,2,9-trimethyl-5-(naphthalen-1-ylmethyl)-4,7,8,11,14-pentaoxo-15-phenyl-3,6,10,13-tetraazapentadecanoic acid] | 0.03 | 0.402 | –
CCC(C)C(NC(=O)C(=O)C(C)NC(=O)C(Cc1ccccc1)NC(=O)Cc1cccc2ccccc12)C(=O)NC(C)(C)C(=O)O (stereo not shown) [PHELIX163, 12-benzyl-5-(sec-butyl)-2,2,9-trimethyl-15-(naphthalen-1-yl)-4,7,8,11,14-pentaoxo-3,6,10,13-tetraazapentadecanoic acid] | 0.0485 | 0.429 | –
CCC(C)C(NC(=O)C(=O)C(C)NC(=O)C(Cc1ccc(-c2ccccc2)cc1)NC(=O)Cc1ccccc1)C(=O)NC(C)(C)C(=O)O (stereo not shown) [PHELIX165, 12-([1,1′-biphenyl]-4-ylmethyl)-5-(sec-butyl)-2,2,9-trimethyl-4,7,8,11,14-pentaoxo-15-phenyl-3,6,10,13-tetraazapentadecanoic acid] | 0.0736 | 0.453 | –
CCC(C)C(NC(=O)C(=O)C(C)NC(=O)C(Cc1ccc(C(C)(C)C)cc1)NC(=O)Cc1ccccc1)C(=O)NC(C)(C)C(=O)O (stereo not shown) [PHELIX167, 5-(sec-butyl)-12-(4-(tert-butyl)benzyl)-2,2,9-trimethyl-4,7,8,11,14-pentaoxo-15-phenyl-3,6,10,13-tetraazapentadecanoic acid] | 0.273 | 2.6 | –
CCC(C)C(NC(=O)C(=O)C(C)NC(=O)C(Cc1ccc(C(F)(F)F)cc1)NC(=O)Cc1ccccc1)C(=O)NC(C)(C)C(=O)O (stereo not shown) [PHELIX168, 5-(sec-butyl)-2,2,9-trimethyl-4,7,8,11,14-pentaoxo-15-phenyl-12-(4-(trifluoro-methyl)benzyl)-3,6,10,13-tetraazapentadecanoic acid] | 0.519 | 1.27 | –
CCC(C)C(NC(=O)C(=O)C(C)NC(=O)C(Cc1ccc(F)cc1)NC(=O)Cc1ccccc1)C(=O)NC(C)(C)C(=O)O (stereo not shown) [PHELIX172, 5-(sec-butyl)-12-(4-fluorobenzyl)-2,2,9-trimethyl-4,7,8,11,14-pentaoxo-15-phenyl-3,6,10,13-tetraazapentadecanoic acid] | 0.0746 | 0.52 | –
CC[C@H](C)[C@H](NC(=O)C(=O)C(Cc1ccccc1)NC(=O)C(Cc1ccccc1)NC(=O)Cc1ccccc1)C(=O)N1CSCC1C(=O)O (stereo partly shown) [PHELIX174, 3-((2-oxo-4-phenyl-3-(3-phenyl-2-(2-phenylacetamido)propanamido)butanoyl)isoleucyl)thiazolidine-4-carboxylic acid] | 0.157 | 0.461 | –
CCC(C)C(NC(=O)C(=O)C(C)NC(=O)C(Cc1cccc(C)c1)NC(=O)Cc1ccccc1)C(=O)NC(C)(C)C(=O)O (stereo not shown) [PHELIX175, 5-(sec-butyl)-2,2,9-trimethyl-12-(3-methylbenzyl)-4,7,8,11,14-pentaoxo-15-phenyl-3,6,10,13-tetraazapentadecanoic acid] | 0.0069 | 0.108 | –
CCC(C)C(NC(=O)C(CC(C)C)NC(=O)OCc1ccccc1)C(=O)C(=O)NCC(=O)NC(Cc1ccc(OC)cc1)C(N)=O (stereo not shown) [PHELIX355, benzyl (1-((1-((2-((1-amino-3-(4-methoxyphenyl)-1-oxopropan-2-yl)amino)-2-oxoethyl)amino)-4-methyl-1,2-dioxohexan-3-yl)amino)-4-methyl-1-oxopentan-2-yl)carbamate] | – | 0.00157 | 0.00171
CCC(C)C(NC(=O)C(CC(C)C)NC(=O)OCc1ccccc1)C(=O)C(=O)NCC(=O)NC(Cc1cccnc1)C(N)=O (stereo not shown) [PHELIX356, benzyl (1-((1-((2-((1-amino-1-oxo-3-(pyridin-3-yl)propan-2-yl)amino)-2-oxoethyl)amino)-4-methyl-1,2-dioxohexan-3-yl)amino)-4-methyl-1-oxopentan-2-yl)carbamate] | – | 0.0112 | 0.00917
CCC(C)C(NC(=O)C(CC(C)C)NC(=O)OCc1ccccc1)C(=O)C(=O)NCC(=O)NC(Cc1ccncc1)C(N)=O (stereo not shown) [PHELIX357, benzyl (1-((1-((2-((1-amino-1-oxo-3-(pyridin-4-yl)propan-2-yl)amino)-2-oxoethyl)amino)-4-methyl-1,2-dioxohexan-3-yl)amino)-4-methyl-1-oxopentan-2-yl)carbamate] | – | 0.00439 | 0.0155
CCC(C)C(NC(=O)C(CC(C)C)NC(=O)OCc1ccccc1)C(=O)C(=O)NC(Cc1cccc(F)c1)C(N)=O (stereo not shown) [PHELIX359, benzyl (1-((1-((1-amino-3-(3-fluorophenyl)-1-oxopropan-2-yl)amino)-4-methyl-1,2-dioxohexan-3-yl)amino)-4-methyl-1-oxopentan-2-yl)carbamate] | – | 0.00073 | 0.00203
CCC(C)C(NC(=O)C(CC(C)C)NC(=O)OCc1ccccc1)C(=O)C(=O)NC(Cc1ccc2ccccc2c1)C(=O)N(C)C (stereo not shown) [PHELIX360, benzyl (1-((1-((1-(dimethylamino)-3-(naphthalen-2-yl)-1-oxopropan-2-yl)amino)-4-methyl-1,2-dioxohexan-3-yl)amino)-4-methyl-1-oxopentan-2-yl)carbamate] | – | 0.0291 | 0.0441
CCC(C)C(NC(=O)C(CC(C)C)NC(=O)OCc1ccccc1)C(=O)C(=O)NC(Cc1ccc2ccccc2c1)C(=O)NC1CC1 (stereo not shown) [PHELIX361, benzyl (1-((1-((1-(cyclopropylamino)-3-(naphthalen-2-yl)-1-oxopropan-2-yl)amino)-4-methyl-1,2-dioxohexan-3-yl)amino)-4-methyl-1-oxopentan-2-yl)carbamate] | – | 0.0237 | 0.0415
CCC(C)C(NC(=O)C(CC(C)C)NC(=O)OCc1ccccc1)C(=O)C(=O)N1CC(C(=O)NCc2cncnc2)C1 (stereo not shown) [PHELIX362, benzyl (4-methyl-1-((4-methyl-1,2-dioxo-1-(3-((pyrimidin-5-ylmethyl)carbamoyl)azetidin-1-yl)hexan-3-yl)amino)-1-oxopentan-2-yl)carbamate] | – | 0.157 | 0.63
CCC(C)C(NC(=O)C(CC(C)C)NC(=O)OCc1ccccc1)C(=O)C(=O)N1CC(C(=O)NCc2ccc3ccccc3c2)C1 (stereo not shown) [PHELIX363, benzyl (4-methyl-1-((4-methyl-1-(3-((naphthalen-2-ylmethyl)carbamoyl)azetidin-1-yl)-1,2-dioxohexan-3-yl)amino)-1-oxopentan-2-yl)carbamate] | – | 0.0194 | 0.178
CCC(C)C(NC(=O)C(CC(C)C)NC(=O)OCc1ccccc1)C(=O)C(=O)N1CC(C(=O)NCc2n[nH]c3c2CCC3)C1 (stereo not shown) [PHELIX364, benzyl (4-methyl-1-((4-methyl-1,2-dioxo-1-(3-(((1,4,5,6-tetrahydrocyclopenta[c]pyrazol-3-yl)methyl)carbamoyl)azetidin-1-yl)hexan-3-yl)amino)-1-oxopentan-2-yl)carbamate] | – | 0.117 | 0.0321
CCC(C)C(NC(=O)C(CC(C)C)NC(=O)Cc1cncnc1)C(=O)C(=O)NCC(=O)NC(Cc1ccc2ccccc2c1)C(N)=O (stereo not shown) [PHELIX365, N-(2-((1-amino-3-(naphthalen-2-yl)-1-oxopropan-2-yl)amino)-2-oxoethyl)-4-methyl-3-(4-methyl-2-(2-(pyrimidin-5-yl)acetamido)pentanamido)-2-oxohexanamide] | – | 0.0179 | 0.00621
CCC(C)C(NC(=O)C(CC(C)C)NC(=O)OCc1ccccc1)C(=O)C(=O)N1CC(C(=O)NCc2ccc(C(=N)N)cc2)C1 (stereo not shown) [PHELIX366, benzyl (1-((1-(3-((4-carbamimidoylbenzyl)carbamoyl)azetidin-1-yl)-4-methyl-1,2-dioxohexan-3-yl)amino)-4-methyl-1-oxopentan-2-yl)carbamate] | – | 0.137 | 0.442
CC[C@H](C)C(NC(=O)[C@H](CC(C)C)NC(=O)OCc1ccccc1)C(=O)C(=O)N1CC(C(=O)O)C1 (stereo partly shown) [PHELIX367, 1-(3-(2-(((benzyloxy)carbonyl)amino)-4-methylpentanamido)-4-methyl-2-oxohexanoyl)azetidine-3-carboxylic acid] | – | 0.906 | > 1
